Columns and labels:
Sprague-Dawley rats = assay: Plasma total cholesterol, HDL-cholesterol and triglyceride levels in rats fed high-cholesterol diet; type: in vivo, rat
Source text: (Step 1) Administration of NG5006 to rats
30 four-week-old white Sprague-Dawley rats (Korea Institute of Science and Technology, Korea), each weighing about 90 to 120 g, were evenly divided into three dietary groups by a randomized block design. The rats of the three groups were fed with three different high-cholesterol diets, i.e., AIN-76 laboratory animal diet(ICN Biochemicals, Cleveland, Ohio, U.S.A.) containing 1% cholesterol(Control group), 1% cholesterol plus 0.02% naringenin and 1% cholesterol plus 0.036% NG5006, respectively.
The rats were allowed to feed freely on the specified diet together with water for six weeks, the ingestion amount was recorded daily and the rats were weighed every 7 days, and then the record was analyzed. […] (Step 2) Determination of total cholesterol, HDL-cholesterol and triglyceride contents in blood
The effects of administering naringenin or NG5006 to rats on the plasma cholesterol and triglyceride contents were determined as follows.
Blood samples were taken from the rats of the three dietary groups and total cholesterol level was determined by using Sigma Diagnostic Kit Cat. No. C0534(Sigma Chemical Co., U.S.A.). HDL fractions were separated therefrom by using HDL-cholesterol reagent(Sigma Chemical Co., Cat. No. 352-1) and HDL-cholesterol level was determined by using Sigma Diagnostic Kit Cat. No. C9908(Sigma Chemical Co., U.S.A.). Triglyceride level was determined by using Sigma Diagnostic Kit Cat. No. 336-10(Sigma Chemical Co., U.S.A.).

[1] = test system: New Zealand White rabbits; assay: Fatty streak in the main artery of cholesterol-fed rabbits; type: in vivo, rabbit
Experimental: 22 three-month-old New Zealand White rabbits(Yeonam Horticulture and Animal Husbandry College, Korea) each weighing about 2.0 to 2.3 kg were bred under a condition of temperature 20±2° C., relative humidity 55±10%, and photoperiod 12L/12D. The rabbits were divided two groups of 6 rabbits and a group of 10 rabbits, and the rats of three groups were fed with three different diets, i.e., RC4 diet(Oriental Yeast Co., Japan) containing 1% cholesterol(Control group); 1% cholesterol plus 1 mg/kg Lovastatin® (Merck, U.S.A.)(Comparative group); and 1% cholesterol plus 0.1% NG5006, respectively. RC4 diet comprises 7.6% moisture, 22.8% crude protein, 2.8% crude fat, 8.8% crude ash, 14.4% crude cellulose and 43.6% soluble nitrogen-free substances. The rabbits were bred for 8 weeks while being allowed free access to the diets and water.
The rabbits bred in Step 1 were sacrificed and their chest were incised. The main artery was cut out therefrom in a length of about 5 cm downward from the site 1 cm above the aortic valve and the fat surrounding the main artery was removed. The main artery was incised in the middle along the longitudinal axis and fixed in 10% neutral buffered formalin for 24 hours, and then, pinned to a dish. The moist artery was photographed and, then, staining of fatty streak was carried out in accordance with the method of Esper, E., et al. (J. Lab. Clin. Med., 121, 103-110(1993)) as follows.
A part of the incised main artery was washed three times by 2 min. with anhydrous propylene glycol and stained for 30 min. with a saturated solution of Oil Red O(ORO, Sigma Co.) dissolved in propylene glycol. Thereafter, the artery was washed twice by 3 min. with 85% propylene glycol to remove remaining staining solution and, then washed with physical saline. The artery was photographed and the photograph was traced. The area of stained legion(fatty streak legion) was determined with an image analyzer(LEICA, Q-600, Germany) and its proportion(%) to the total arterial area was calculated. The result is shown in Table V. The results were tested by student t-test by using Microsoft excel(version 7.0) program.

[2] = plasma, rats on 1% cholesterol diet plus 0.02% naringenin or 0.036% NG5006, six weeks
[3] = rats, 1% cholesterol diet, six weeks

In the case of `CCCCCCCCCCCCCCCCOc1cc(O)c2c(c1)OC(c1ccc(O)cc1)CC2=O` (centres unmarked) [NG5006, Naringenin 7-O-cetyl Ether], the “HDL-C (HDL-cholesterol)” value (Sprague-Dawley rats; [2]) is reported as 36.7 ± 1.3 mg/dL, the HDL-C/Total-C (Sprague-Dawley rats; [2]) is reported as 20.4 ± 0.7% and the “TG (triglyceride)” value (Sprague-Dawley rats; [2]) is reported as 118.4 ± 3.4 mg/dL. For the same molecule, the “Total-C (total cholesterol)” value (Sprague-Dawley rats; [2]) was 183.5 ± 6.4 mg/dL, the “AI: Atherosclerosis Index (AI = (Total-C − HDL-C)/HDL-C)” value (Sprague-Dawley rats; rats on 1% cholesterol diet plus 0.02% naringenin or 0.036% NG5006, six weeks) was 4.0 ± 0.2 and the “lowering blood lipid level, comparison in words” value (Sprague-Dawley rats; [3]) was “superior to naringenin in lowering blood lipid level”. For the same molecule, the “total plasma cholesterol level lower than in the Control group” value (Sprague-Dawley rats; [3]) was 19%, the “triglyceride level lower than in the control group” value (Sprague-Dawley rats; [3]) was 33% and the “layer on the arterial endothelium (FIGS. 1B, 1C)” value ([1]; 1% cholesterol plus 1 mg/kg Lovastatin or 0.1% NG5006) was “no or very thin layers of macrophage-lipid complex”. For the same molecule, the “formation of fatty streak compared to the control group, in words” value ([1]; 1% cholesterol plus 1 mg/kg Lovastatin or 0.1% NG5006, 8 weeks) was “significantly inhibit the formation of fatty streak” and the “Fatty Streak lesion (proportion of total arterial area)” value ([1]; 1% cholesterol plus 1 mg/kg Lovastatin or 0.1% NG5006, 8 weeks, Oil Red O staining) was 12.3 ± 6.2%.

Reference: patent US6455577B2, “Flavanone derivatives and composition for preventing or treating blood lipid level-related diseases comprising same” (Korea Research Institute of Bioscience and Biotechnology, priority 2000, dated 2002)
